{
  "source": "patent US20240124488A1",
  "about": "“AZA-CRYPTOPHANES, PROCESSES FOR PREPARATION THEREOF, AND THEIR USES” (UNIVERSITE DE CAEN NORMANDIE, priority 2021, published 2024)",
  "key": {"[1]": {"test": "Cavity size by X-ray crystallography", "format": "physicochemical", "conditions": "crystals by slow evaporation in dichloromethane at 4° C.", "procedure": "Crystallographic data of both anti and syn cryptophanes 1N were obtained by slow evaporation in dichloromethane at 4° C. The anti compound has a cavity size of 137.0 Å^3 and the syn compound has a cavity size of 121.4 Å^3, both larger than the size of the prior art cryptophane C (114.5 Å^3).\nAnti cryptophanes 1N crystals were also obtained by slow evaporation in anisole, which is too large to enter the cage. This enabled to visualise the conformation of the cryptophane 1N and the size of its cavity without caged compound. The size of the empty cavity is between 85.4 and 86.8 Å^3."}, "[2]": {"test": "Encapsulation efficiency by UV spectrophotometry", "format": "physicochemical", "procedure": "Cryptophanes concentration were defined using spectrophotometry (Infinite M200, Tecan, Mannedorf, Switzerland) by determining absorbance spectrum of Crytophane in solution in MeOH.\nThe encapsulation efficiency (EE) was determined after filtration through 0.2 μm syringe filters (Minisart® Syringe Filter, Sartorius, Goettingen, Germany) to remove unentrapped cryptophanes. Then, these samples were diluted in methanol (1/100, v/v) and the concentration of cryptophane was determined by spectrophotometry at 288 nm. The EE was determined in duplicate and calculated as follows: […]\nA UV calibration curve for each of the compounds was carried out (see protocol above) using a stock solution of Cr1N in acetonitrile (1.05 mg/mL) and a stock solution of cryptophane A in DMSO (1.85 mg/mL), solutions subsequently diluted in methanol.\nThe batch of nanoemulsions loaded with Cr1N was diluted 100-fold in methanol. Under these conditions, it was confirmed by DLS that the nanoemulsions were destroyed. The amount of cryptophane in this sample was then determined. The concentration of cryptophane in the sample was 28 μM, i.e. an encapsulation efficiency of 60%."}, "[3]": {"test": "129Xe NMR xenon encapsulation", "format": "binding", "conditions": "5 bars, CDCl3, 278 K", "text": "FIG. 1 illustrates the ^129Xe NMR spectrum (5 bars, CDCl3) of cryptophane-1N 12.\n^129Xe NMR (5 bars, CDCl3): illustrated in FIG. 1."}, "[4]": {"test": "physchem", "conditions": "organic solvent or mixture"}, "[5]": {"test": "Experimental solubility in organic solvents"}, "[6]": {"conditions": "prior art cryptophane; cited from earlier work"}},
  "note": "Where “and” joins values, the source holds several entries; their conditions need not be identical. Equal entries are not always repeated. Where two headings read alike, the source gives them in different places.",
  "data": [
    {"compound": "COc1cc2c3cc1OCCOc1ccc4c(c1)Cc1ccc5cc1Nc1ccc(cc1C4)OCCOc1cc(c(cc1OC)C3)Cc1cc(OC)c(cc1C2)OCCO5", "note": "[Cryptophane-1N]", "values": [
      {"measurement": "cavity size", "setting": "[1]", "value": 137.0, "unit": "Å^3"},
      {"measurement": "amount loaded into nanoemulsions relative to cryptophane A", "setting": "[2]", "value": "more than twice as much"},
      {"measurement": "Xenon encapsulation", "setting": "[3]", "value": "successfully encapsulate xenon"},
      {"measurement": "solubility", "setting": "[4]; Experimental solubility in CHCl3", "value": "> 8.27", "unit": "mM"},
      {"measurement": "solubility", "setting": "[4]; Experimental solubility in DMSO", "value": "> 59500 µg/mL and > 73800 µM"},
      {"measurement": "solubility", "setting": "[4]; Experimental solubility in MeCN", "value": "> 2.23", "unit": "mM"}
    ]},
    {"compound": "COc1cc2c3cc1OCCOc1cc4c(cc1OC)Cc1cc5c(OC)cc1Cc1cc(c(OC)cc1C4)OCCOc1cc(c(cc1OC)C3)Cc1cc(OC)c(cc1C2)OCCO5", "note": "[Cryptophane A]", "values": [
      {"measurement": "Experimental solubility in MeCN", "setting": "[5]", "value": "very poorly soluble"}
    ]},
    {"compound": "COc1cc2c3cc1OCCOc1ccc4c(c1)Cc1ccc5cc1Nc1ccc(cc1C4)OCCOc1cc(c(cc1OC)Cc1cc(c(OC)cc1C3)OCCO5)C2", "note": "[Cryptophane-1N Syn]", "values": [
      {"measurement": "cavity size", "setting": "[1]", "value": 121.4, "unit": "Å^3"}
    ]},
    {"compound": "cryptophane C", "values": [
      {"measurement": "cavity size", "setting": "[6]", "value": 114.5, "unit": "Å^3"}
    ]}
  ]
}
